Literature values as cited in PubChem BioAssay AID1259409 (Chemical Carcinogenesis Research Information System (CCRIS), 2018).

System: rodent chemically induced tumor inhibition, incidence and multiplicity
Experiment: CCRIS tumor inhibitor studies
Conditions: Route [Inhibitor]: ORAL, Promoter: NONE USED

CCNC(=O)/C=C(C)/C=C/C=C(C)/C=C/C1=C(C)CCCC1(C)C
tumour outcome (control, treated, inhibition, significance) (Carcinogen: 1,2-DIMETHYLHYDRAZINE, 540-73-8, Dose [Inhibitor]: 2 MMOL/KG DIET DAILY STARTING 12 D AFTER CARCINOGEN TREATMENT THROUGH ABOUT 8 MO AFTER CARCINOGEN DOSE (STUDY DURATION:, Species: RAT, Strain/Sex: F344/MALE, Target Tissue: Type of Lesion: COLON: ADENOCARCINOMA, Dose [Carcinogen]: 150 MG/KG BW ONCE): 10/39 (26%), 6/30 (20%), 23%, not significant | tumour outcome (control, treated, inhibition, significance) (Carcinogen: 1,2-DIMETHYLHYDRAZINE, 540-73-8, Dose [Inhibitor]: 2 MMOL/KG DIET DAILY STARTING 12 D AFTER CARCINOGEN TREATMENT THROUGH ABOUT 8 MO AFTER CARCINOGEN DOSE (STUDY DURATION:, Species: RAT, Strain/Sex: F344/MALE, Target Tissue: Type of Lesion: COLON: ADENOMA, Dose [Carcinogen]: 150 MG/KG BW ONCE): 23/39 (59%), 15/30 (50%), 15%, not significant | tumour outcome (control, treated, inhibition, significance) (Carcinogen: N-(4-(5-NITRO-2-FURYL)-2-THIAZOLYL)FORMAMIDE, 24554-26-5, Dose [Inhibitor]: 327 MG/KG DIET DAILY FOR 39 WK STARTING ONE WK FOLLOWING THE TERMINATION OF CARCINOGEN ADMINISTRATION (STUDY DURATION: 5, Species: RAT, Strain/Sex: F344/FEMALE, Target Tissue: Type of Lesion: URINARY BLADDER: CARCINOMA, Dose [Carcinogen]: 2 G/KG IN DIET DAILY FOR 10 WK): 105/200 (53%), 63/100 (63%), -19%, p 0.0843 | tumour outcome (control, treated, inhibition, significance) (Carcinogen: N-(4-(5-NITRO-2-FURYL)-2-THIAZOLYL)FORMAMIDE, 24554-26-5, Dose [Inhibitor]: 327 MG/KG DIET DAILY FOR 39 WK STARTING ONE WK FOLLOWING THE TERMINATION OF CARCINOGEN ADMINISTRATION (STUDY DURATION: 5, Species: RAT, Strain/Sex: F344/FEMALE, Target Tissue: Type of Lesion: URINARY BLADDER: PAPILLOMA, Dose [Carcinogen]: 2 G/KG IN DIET DAILY FOR 10 WK): 15/200 (8%), 1/100 (1%), 88%, p 0.0182 | tumour outcome (control, treated, inhibition, significance) (Carcinogen: N-(4-(5-NITRO-2-FURYL)-2-THIAZOLYL)FORMAMIDE, 24554-26-5, Dose [Inhibitor]: 327 MG/KG/D IN DIET FOR 39 WK STARTING 1 WK POST CARCINOGEN DOSE TREATMENT (STUDY DURATION: 50 WK), Species: RAT, Strain/Sex: F344/FEMALE, Target Tissue: Type of Lesion: URINARY BLADDER: PAPILLOMA, Dose [Carcinogen]: 2 G/KG/D IN DIET FOR 10 WK): 15/200 (8%), 1/100 (1%), 87%, p=0.0182 | tumour outcome (control, treated, inhibition, significance) (Carcinogen: N-(4-(5-NITRO-2-FURYL)-2-THIAZOLYL)FORMAMIDE, 24554-26-5, Dose [Inhibitor]: 327 MG/KG/D IN DIET FOR 39 WK STARTING 1 WK POST CARCINOGEN TREATMENT (STUDY DURATION: 50 WK), Species: RAT, Strain/Sex: F344/FEMALE, Target Tissue: Type of Lesion: URINARY BLADDER: CARCINOMA, Dose [Carcinogen]: 2 G/KG/D IN DIET FOR 10 WK): 105/200 (53%), 63/100 (63%), -19%, p=0.0843 | tumour outcome (control, treated, inhibition, significance) (Carcinogen: N-(4-(5-NITRO-2-FURYL)-2-THIAZOLYL)FORMAMIDE, 24554-26-5, Dose [Inhibitor]: 654 MG/KG DIET DAILY FOR 39 WK STARTING ONE WK FOLLOWING THE TERMINATION OF CARCINOGEN ADMINISTRATION (STUDY DURATION: 5, Species: RAT, Strain/Sex: F344/FEMALE, Target Tissue: Type of Lesion: URINARY BLADDER: CARCINOMA, Dose [Carcinogen]: 2 G/KG IN DIET DAILY FOR 10 WK): 105/200 (53%), 78/100 (78%), -47%, p 0.00002 | tumour outcome (control, treated, inhibition, significance) (Carcinogen: N-(4-(5-NITRO-2-FURYL)-2-THIAZOLYL)FORMAMIDE, 24554-26-5, Dose [Inhibitor]: 654 MG/KG DIET DAILY FOR 39 WK STARTING ONE WK FOLLOWING THE TERMINATION OF CARCINOGEN ADMINISTRATION (STUDY DURATION: 5, Species: RAT, Strain/Sex: F344/FEMALE, Target Tissue: Type of Lesion: URINARY BLADDER: PAPILLOMA, Dose [Carcinogen]: 2 G/KG IN DIET DAILY FOR 10 WK): 15/200 (8%), 12/100 (12%), -50%, p 0.1989 | tumour outcome (control, treated, inhibition, significance) (Carcinogen: N-(4-(5-NITRO-2-FURYL)-2-THIAZOLYL)FORMAMIDE, 24554-26-5, Dose [Inhibitor]: 654 MG/KG IN DIET FOR 39 WK STARTING 1 WK POST CARCINOGEN TREATMENT (STUDY DURATION: 50 WK), Species: RAT, Strain/Sex: F344/FEMALE, Target Tissue: Type of Lesion: URINARY BLADDER: PAPILLOMA, Dose [Carcinogen]: 2 G/KG/D IN DIET FOR 10 WK): 15/200 (7.5%), 12/100 (12%), -60%, p=0.1989 | tumour outcome (control, treated, inhibition, significance) (Carcinogen: N-(4-(5-NITRO-2-FURYL)-2-THIAZOLYL)FORMAMIDE, 24554-26-5, Dose [Inhibitor]: 654 MG/KG/D IN DIET FOR 39 WK STARTING 1 WK POST CARCINOGEN TREATMENT (STUDY DURATION: 50 WK), Species: RAT, Strain/Sex: F344/FEMALE, Target Tissue: Type of Lesion: URINARY BLADDER: CARCINOMA, Dose [Carcinogen]: 2 G/KG/D IN DIET FOR 10 WK): 105/200 (53%), 78/100 (78%), -47%, p=0.00002 | tumour outcome (control, treated, inhibition, significance) (Carcinogen: N-BUTYL-N-(4-HYDROXYBUTYL)NITROSAMINE, 3817-11-6, Dose [Inhibitor]: 0.5 MMOL/KG DIET DAILY FOR 16 WK STARTING 7 D AFTER FINAL CARCINOGEN DOSE (STUDY DURATION: 6 MO), Species: MOUSE, Strain/Sex: B6D2F1/MALE, Target Tissue: Type of Lesion: URINARY BLADDER: CARCINOMA, Dose [Carcinogen]: 5 OR 10 MG 2/WK FOR 9 WK): 36/97 (37%), 25/76 (33%), 11%, not significant | tumour outcome (control, treated, inhibition, significance) (Carcinogen: N-BUTYL-N-(4-HYDROXYBUTYL)NITROSAMINE, 3817-11-6, Dose [Inhibitor]: 1 MMOL/KG DIET DAILY FOR 16 WK STARTING 7 D AFTER FINAL CARCINOGEN DOSE (STUDY DURATION: 6 MO), Species: MOUSE, Strain/Sex: B6D2F1/MALE, Target Tissue: Type of Lesion: URINARY BLADDER: CARCINOMA, Dose [Carcinogen]: 5 OR 10 MG 2/WK FOR 9 WK): 36/97 (37%), 16/75 (21%), 43%, p<0.025 | tumour outcome (control, treated, inhibition, significance) (Carcinogen: N-BUTYL-N-(4-HYDROXYBUTYL)NITROSAMINE, 3817-11-6, Dose [Inhibitor]: 1.5 MMOL/KG DIET DAILY FOR 153 D STARTING ONE WK AFTER THE FINAL CARCINOGEN DOSE (STUDY DURATION: 210 D), Species: MOUSE, Strain/Sex: BDF1/MALE, Target Tissue: Type of Lesion: URINARY BLADDER: TRANSITIONAL CELL CARCINOMA, Dose [Carcinogen]: 7.5 MG 1/WK FOR 8 WK): 35/99 (35%), 21/99 (21%), 40%, p<0.05 | tumour outcome (control, treated, inhibition, significance) (Carcinogen: N-BUTYL-N-(4-HYDROXYBUTYL)NITROSAMINE, 3817-11-6, Dose [Inhibitor]: 1.5 MMOL/KG IN DIET FOR 153 D STARTING 1 WK AFTER LAST CARCINOGEN DOSE (STUDY DURATION: 210 D), Species: MOUSE, Strain/Sex: DBF1/MALE, Target Tissue: Type of Lesion: URINARY BLADDER: TRANSITIONAL CELL CARCINOMA, Dose [Carcinogen]: 7.5 MG 1/WK FOR 8 WK): 35/99 (35%), 21/99 (21%), 40%, p<0.05 | tumour outcome (control, treated, inhibition, significance) (Carcinogen: N-BUTYL-N-(4-HYDROXYBUTYL)NITROSAMINE, 3817-11-6, Dose [Inhibitor]: 2 MMOL/KG DIET DAILY FOR 17 WK STARTING 7 D AFTER FINAL CARCINOGEN DOSE (STUDY DURATION: 6 MO), Species: RAT, Strain/Sex: F344/MALE, Target Tissue: Type of Lesion: URINARY BLADDER: TRANSITIONAL CELL CARCINOMA, Dose [Carcinogen]: 200 MG 2/WK FOR 8 WK): 55/60 (92%), 25/30 (83%), 10%, not significant | tumour outcome (control, treated, inhibition, significance) (Carcinogen: N-BUTYL-N-(4-HYDROXYBUTYL)NITROSAMINE, 3817-11-6, Dose [Inhibitor]: 2 MMOL/KG DIET DAILY FOR 19 WK STARTING 7 D AFTER FINAL CARCINOGEN DOSE (STUDY DURATION: 6 MO), Species: RAT, Strain/Sex: F344/FEMALE, Target Tissue: Type of Lesion: URINARY BLADDER: TRANSITIONAL CELL CARCINOMA, Dose [Carcinogen]: 150 MG 2/WK FOR 6 WK): 28/80 (35%), 5/40 (12%), 66%, p<0.01 | tumour outcome (control, treated, inhibition, significance) (Carcinogen: N-METHYL-N-NITROSOUREA, 684-93-5, Dose [Inhibitor]: 2 MMOL/KG DIET DAILY STARTING 12 D AFTER CARCINOGEN TREATMENT THROUGH ABOUT 8 MO AFTER CARCINOGEN DOSE (STUDY DURATION:, Species: RAT, Strain/Sex: F344/MALE, Target Tissue: Type of Lesion: COLON: ADENOCARCINOMA, Dose [Carcinogen]: 2.5 MG 1/WK FOR 2 WK): 5/39 (13%), 9/30 (30%), -131%, not significant
